Article PMC9950143 (Scientific Reports, 2023)

Experiments:
[1] = system: hepatitis B virus (HBV; AD38 strain); test: Anti-HBV assay (HBsAg), HepG2-NTCP cells; format: cell-based; settings: HepG2 or PHH cells
Zika virus (Dakar) = test: NanoLuc reporter virus infection assay, Huh-7; format: cell-based; settings: Zika virus (Dakar) [Huh-7]
Rhinovirus A2 = test: CPE assay, H1 HeLa cells; format: cell-based
[2] = system: Influenza A (A/California/07/2009); test: CPE assay, MDCK cells; format: cell-based; settings: Influenza A virus; Influenza A (A/California/07/2009) [MDCK]; read-out: Antiviral activity EC50
Dengue 3 virus (VN32) = test: microbe, parasite or virus in culture; format: cell-based; settings: Dengue 3 virus (VN32) [Huh-7]
all SUDV isolates tested = test: microbe, parasite or virus in culture; format: cell-based; settings: Sudan ebolavirus, HeLa, read-out: EC50 values against all SUDV isolates tested
[3] = system: hepatitis B virus (HBV; AD38 strain); test: microbe, parasite or virus in culture; format: cell-based; settings: Hepatocyte, read-out: Antiviral activity EC50
Enterovirus 68D = test: CPE assay, RD cells; format: cell-based; settings: Enterovirus 68D [RD]
Zika virus (PRVABC59) = test: NanoLuc reporter virus infection assay, Huh-7; format: cell-based; settings: Zika virus (PRVABC59) [Huh-7]
Dengue 3 virus (H87) = test: microbe, parasite or virus in culture; format: cell-based
Sudan virus (Yambio) = test: microbe, parasite or virus in culture; format: cell-based
Ravn Virus = test: microbe, parasite or virus in culture; format: cell-based
Dengue 4 virus (MY01) = test: microbe, parasite or virus in culture; format: cell-based; settings: Dengue 4 virus (MY01) [Huh-7]
[4] = system: Human coronavirus 229E (HCoV-229E); test: microbe, parasite or virus in culture; format: cell-based
OC43 = settings: different cells and/or assay protocols, read-out: Previously reported activity EC50; cited from earlier work
Marburg (Drandema) = test: microbe, parasite or virus in culture; format: cell-based, Marburg virus
Enterovirus 71 = test: CPE assay, RD cells; format: cell-based; settings: Enterovirus 71 [RD]
HCV GT2a replicon = test: HCV subgenomic replicon Renilla luciferase assay, Huh-7-lunet; format: cell-based, hepatitis C virus; settings: Hepatitis C (2a) [Huh-7-lunet]
Marburg (Kabale) = test: microbe, parasite or virus in culture; format: cell-based, Marburg virus
Huh-7 cells = settings: human
[5] = Multiplex cytotoxicity (calcein AM) in HCV replicon assay; settings: human, Huh-7-lunet HCV genotype 1b replicon cells
HCV 1b replicon = settings: Hepatitis C (1b) replicon; read-out: Previously reported activity EC50; cited from earlier work
Marburg (Musoke) = test: microbe, parasite or virus in culture; format: cell-based, Marburg virus
Ebola virus (Mayinga) = test: microbe, parasite or virus in culture; format: cell-based
[6] = system: Dengue 2 virus (New Guinea C); test: NanoLuc reporter virus infection assay, Huh-7; format: cell-based; settings: Dengue 2 virus (New Guinea C) [Huh-7]
Rhinovirus 16 = test: CPE assay, H1 HeLa cells; format: cell-based; settings: Rhinovirus 16 [H1 HeLa]
West Nile (NY99) = test: microbe, parasite or virus in culture; format: cell-based, West Nile virus
[7] = system: hepatitis E virus (GT3-Kernow C1 p6/Luciferase replicon); test: HEV replicon Gaussia luciferase assay, Huh-7; format: cell-based; settings: Hepatitis E GT3 Kernow C1 p6/Luc replicon [Huh-7]
Marburg virus (Ci67) = test: microbe, parasite or virus in culture; format: cell-based
[8] = Cell toxicity, CellTiter-Glo, in HBV assay; settings: human, PHH cells (HBV assay)
SUDV Boniface = test: microbe, parasite or virus in culture; format: cell-based, Sudan virus; settings: Sudan ebolavirus, HeLa; n = 9; read-out: RDV activity against SUDV EC50
[9] = Compound cytotoxicity by MTS dye reduction; settings: human, RD cells
H1 HeLa cells = test: Compound cytotoxicity by MTS dye reduction; settings: H1 HeLa
[10] = Compound cytotoxicity by MTS dye reduction; settings: human, H1 HeLa cells
[11] = n = 1, read-out: Antiviral activity EC50
[12] = Filoviridae, HeLa, read-out: Antiviral activity EC50

CCC(CC)COC(=O)[C@H](C)N[P@](=O)(OC[C@H]1O[C@@](C#N)(c2ccc3c(N)ncnn23)[C@H](O)[C@@H]1O)Oc1ccccc1 [RDV, Remdesivir]
selectivity index of RDV against HBV [1]: ~1 | Selectivity index (SI) = CC50/EC50 (Zika virus (Dakar)): 90 | EC50 (Zika virus (Dakar); [11]): 370 nM | Selectivity index (SI) = CC50/EC50 (Rhinovirus A2): > 22 | EC50 (Rhinovirus A2; Rhinovirus A, n = 1, read-out: Antiviral activity EC50): 450 nM | EC50 [2]: > 50000 nM | Selectivity index (SI) = CC50/EC50 (Dengue 3 virus (VN32)): 278 | EC50 (Dengue 3 virus (VN32); [11]): 120 nM | EC50 (all SUDV isolates tested): 120 to 240 nM | EC50 [3]: > 1000 nM | Selectivity index (SI) = CC50/EC50 (Enterovirus 68D): 56 | EC50 (Enterovirus 68D; [11]): 50 nM | Selectivity index (SI) = CC50/EC50 (Zika virus (PRVABC59)): 128 | EC50 (Zika virus (PRVABC59); [11]): 260 nM | Selectivity index (SI) = CC50/EC50 (Dengue 3 virus (H87)): 196 | EC50 (Dengue 3 virus (H87); Dengue virus, Huh-7, read-out: Antiviral activity EC50): 170 ± 70 nM | Selectivity index (SI) = CC50/EC50 (Sudan virus (Yambio)): > 19 | EC50 (Sudan virus (Yambio); Sudan ebolavirus, HeLa, n = 1, read-out: Antiviral activity EC50): 130 nM | Selectivity index (SI) = CC50/EC50 (Ravn Virus): > 37 | EC50 (Ravn Virus; [12]): 68 ± 10 nM | Selectivity index (SI) = CC50/EC50 (Dengue 4 virus (MY01)): 186 | EC50 (Dengue 4 virus (MY01); [11]): 180 nM | Selectivity index (SI) = CC50/EC50 [4]: > 538 | EC50 ([4]; Human coronavirus 229E, H1-HeLa, read-out: Antiviral activity EC50): 93 ± 53 nM | EC50 (OC43): 96 to 150 nM | Selectivity index (SI) = CC50/EC50 (Marburg (Drandema)): > 74 | EC50 (Marburg (Drandema); [12]): 34 ± 4 nM | Selectivity index (SI) = CC50/EC50 (Enterovirus 71): 24 | EC50 (Enterovirus 71; Enterovirus A, n = 1, read-out: Antiviral activity EC50): 140 nM | Selectivity index (SI) = CC50/EC50 (HCV GT2a replicon): 236 | EC50 (HCV GT2a replicon; Hepatitis C virus, GT2A, read-out: Antiviral activity EC50): 72 ± 13 nM | Selectivity index (SI) = CC50/EC50 (Marburg (Kabale)): > 63 | EC50 (Marburg (Kabale); [12]): 40 ± 2 nM | concentration at which cytotoxicity was observed (Huh-7 cells): approximately 4 µM | CC50 [5]: > 20000 nM | EC50 (HCV 1b replicon): 57 nM | Selectivity index (SI) = CC50/EC50 (Marburg (Musoke)): > 63 | EC50 (Marburg (Musoke); [12]): 40 ± 4 nM | Selectivity index (SI) = CC50/EC50 (Ebola virus (Mayinga)): > 18 | EC50 (Ebola virus (Mayinga); Zaire ebolavirus, HeLa, read-out: Antiviral activity EC50): 136 ± 17 nM | Selectivity index (SI) = CC50/EC50 [6]: 145 | EC50 [6, 11]: 230 nM | EC50 (Rhinovirus 16; Enterovirus, n = 1, read-out: Antiviral activity EC50): 750 nM | Selectivity index (SI) = CC50/EC50 (Rhinovirus 16): > 13 | Selectivity index (SI) = CC50/EC50 (West Nile (NY99)): 668 | EC50 (West Nile (NY99); West Nile virus, Huh-7, n = 1, read-out: Antiviral activity EC50): 50 nM | Selectivity index (SI) [7]: Low (When minimal RDV antiviral activity is observed for a particular virus, low SI is indicated) | EC50 ([7]; Hepatitis E virus, read-out: Antiviral activity EC50): > 2070 nM | Selectivity index (SI) = CC50/EC50 (Marburg virus (Ci67)): > 83 | EC50 (Marburg virus (Ci67); [12]): 30 ± 2 nM | CC50 [8]: > 1000 nM | EC50 (SUDV Boniface): 308 nM | CC50 ([9]; listed as Enterovirus 68D): 2820 nM | CC50 ([9]; listed as Enterovirus 71): 3310 nM | CC50 (H1 HeLa cells; listed as Rhinovirus 14): > 10000 nM | CC50 (H1 HeLa cells; listed as Rhinovirus 16): > 10000 nM | CC50 [10]: > 10000 nM
